Reference: US20110218212A1, “PREDICTIVE MARKERS FOR EGFR INHIBITORS TREATMENT” (priority 2007, published 2011)
Where two headings read alike, the source gives them in different places.

Columns and labels:
advanced NSCLC = assay: open-label predictive marker identification Phase II study of Tarceva monotherapy; assay type: in vivo, human; conditions: 264 enrolled patients, 150 mg/day oral
Experimental: Based on the experience from the BR.21 study, benefiting population was defined as either having objective response, or disease stabilization for ≧12 weeks. Clinical and microarray datasets were analyzed according to a pre-defined statistical plan.
The selection of this dose was based on pharmacokinetic parameters, as well as the safety and tolerability profile of this dose observed in Phase I, II and III trials in heavily pre-treated patients with advanced cancer. Drug levels seen in the plasma of patients with cancer receiving the 150 mg/day dose were consistently above the average plasma concentration of 500 ng/ml targeted for clinical efficacy.
This was an open-label, predictive marker identification Phase II study. The study was conducted in approximately 26 sites in about 12 countries. 264 patients with advanced NSCLC following failure of at least one prior chemotherapy regimen were enrolled over a 12 month period. […] Dose reductions were permitted based on tolerability to drug therapy. Clinical and laboratory parameters were assessed to evaluate disease control and toxicity. Treatment continued until disease progression, unacceptable toxicity or death.
The RECIST (Uni-dimensional Tumour Measurement) criteria were used to evaluate response. […]
A regular status check every 3 months was performed either by a patient's visit to the clinic or by telephone. All deaths were recorded. […]

NSCLC [1] = conditions: single agent, patients for whom standard therapy for advanced disease has failed, versus placebo; cited from earlier work
[2] = patients with cancer, 150 mg/day dose; compared with average plasma concentration targeted for clinical efficacy; cited from earlier work
NSCLC [3] = conditions: cited from earlier work
NSCLC [4] = conditions: second line therapy of NSCLC; cited from earlier work

C#Cc1cccc(Nc2ncnc3cc(OCCOC)c(OCCOC)cc23)c1 [Erlotinib]
median overall survival (advanced NSCLC): 7.6 (CI 7-9) months | median progression-free survival (advanced NSCLC): 11.3 (CI 8-12) weeks | survival of NSCLC patients (NSCLC [1]): significantly prolongs and improves the survival | drug levels in plasma [2]: > 500 ng/mL

CC(=O)O[C@@]12CO[C@@H]1C[C@H](O)[C@@]1(C)C(=O)[C@H](O)C3=C(C)[C@@H](OC(=O)[C@H](O)[C@@H](NC(=O)OC(C)(C)C)c4ccccc4)C[C@@](O)([C@@H](OC(=O)c4ccccc4)[C@H]21)C3(C)C [docetaxel]
survival (NSCLC [3]; second line after cisplatin-based first-line regimens failed, all ages, ECOG performance status 0, 1 or 2): improved survival | survival (NSCLC [3]; third-line treatment or beyond): no prolongation of survival

Nc1nc2[nH]cc(CCc3ccc(C(=O)N[C@@H](CCC(=O)O)C(=O)O)cc3)c2c(=O)[nH]1 [pemetrexed]
efficacy compared with docetaxel (NSCLC [4]): clinically equivalent efficacy | side effects compared with docetaxel (NSCLC [4]): significantly fewer side effects
